Where two headings read alike, the source gives them in different places.
Experiments:
[1] = system: P388 leukemia; test: Antitumor activity in CDF1 mice with intraperitoneally transplanted P388 leukemia, i.v. administration, 30-day survival; format: in vivo; details: for Increase in life span T/C (%): days 1 and 5, saline control = 100%; for ED (T/C 130%): Mus musculus, 720 h
[2] = in vivo; details: mouse, iv
[3] = Stability of M-R20X3 during measurements (1) through (4); format: physicochemical

Structure (SMILES): COc1cccc2c1C(=O)c1c(O)c3c(c(O)c1C2=O)C[C@@](O)(C(=O)CO)C[C@@H]3O[C@H]1C[C@H](N)[C@H](O)[C@H](C)O1 [Adriamycin, reference compound]
- Increase in life span T/C (%) ([1]; 1 mg/kg/day i.v.): 103%
- Increase in life span T/C (%) ([1]; 2 mg/kg/day i.v.): 119%
- Increase in life span T/C (%) ([1]; 4 mg/kg/day i.v.): 133%
- Increase in life span T/C (%) ([1]; 8 mg/kg/day i.v.): 165%
- Increase in life span T/C (%) ([1]; 12 mg/kg/day i.v.): 244%

Structure (SMILES): CC[C@@]1(O)C[C@H](O[C@H]2C[C@H](N3CCOCC3)[C@H](O)[C@H](C)O2)c2c(O)c3c(c(O)c2C1O)C(=O)c1cccc(O)c1C3=O (some centres unmarked) [M-R20X2, 3'-deamino-3'-(4-morpholinyl)-13-deoxo-10-hydroxycarminomycin]
- Solubility (soluble in) (acidic water, basic water, methanol, ethanol, propanol, acetone, ethyl acetate, and chloroform): Soluble
- Solubility (insoluble in) (water, hexane, cyclohexane, diethyl ether, and petroleum ether): Insoluble
- LD50 [2]: 3.55 mg/kg
- ED (T/C 130%) ([1]; P388, iv, read-out: Dose for T/C = 130% (mg/kg/day)): 0.43 mg/kg/day
- Therapeutic index ([1]; mouse, in vivo, iv): 4.7

Structure (SMILES): CC[C@@]1(O)C[C@H](O[C@H]2C[C@H](N3CCOCC3)[C@H](O)[C@H](C)O2)c2c(O)c3c(c(O)c2[C@H]1C(=O)O)C(=O)c1cccc(O)c1C3=O [M-R20X3, 3'-deamino-3'-(4-morpholinyl)-13-deoxo-10-hydroxycarbonylcarminomycin]
- Stability (lability) [3]: extremely labile
- Decomposition after completion of the measurements ([3]; measurements (1) through (4) carried out quickly): no decomposition was observed

Structure (SMILES): CC[C@]1(O)Cc2c(O)c3c(c(O)c2[C@@H](O[C@H]2C[C@H](N4CCOCC4)[C@H](O)[C@H](C)O2)C1)C(=O)c1c(O)cccc1C3=O [M-R20X, 3'-deamino-3'-(4-morpholinyl)-13-deoxocarminomycin]
- LD50 [2]: 12.3 mg/kg
- ED (T/C 130%) ([1]; iv, i.v., P388 leukemia in CDF1 mice, read-out: Dose for T/C = 130%): 2.5 mg/kg/day
